Measurements as given in US20200055817A1 (AbbVie Deutschland GmbH & Co. KG, priority 2016, published 2020).
pEC50: −log10 of the molar value. Structures can show the parent of a compound that is named as a salt.

Legend:
Format in all cases: cell-based
[1] = molecular target: T1, human EDG8 (S1PR5) receptor (Homo sapiens, UniProt Q9H228); experiment: Aequorin assay, agonist potency, CHO-A21-EDG8#12 cells; settings: agonist mode, aequorin luminescence; read-out: S1P5 EC50 range #
T1 construct: carries the transgenes human EDG8 (S1PR5) receptor (Acession number NP_110387.1); expressed in transfected cells; host or cells: CHO-A21-EDG8#12 (CHO clone co-expressing mitochondrial aequorin and chimaeric Gaqi5)
T1 sequence (Q9H228 whole entry): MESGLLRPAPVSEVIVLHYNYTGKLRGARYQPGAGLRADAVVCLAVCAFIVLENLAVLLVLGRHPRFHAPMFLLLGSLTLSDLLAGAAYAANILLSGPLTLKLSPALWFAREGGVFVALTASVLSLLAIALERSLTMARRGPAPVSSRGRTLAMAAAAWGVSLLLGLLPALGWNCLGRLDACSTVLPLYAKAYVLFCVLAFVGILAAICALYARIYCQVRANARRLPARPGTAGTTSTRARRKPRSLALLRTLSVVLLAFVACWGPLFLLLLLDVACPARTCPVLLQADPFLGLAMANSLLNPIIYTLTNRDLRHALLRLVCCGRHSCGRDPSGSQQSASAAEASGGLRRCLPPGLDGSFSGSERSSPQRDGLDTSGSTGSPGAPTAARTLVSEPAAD
Outline: (§1)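 CHO cells coexpressing receptor, mitochondrial aequorin and Gαqi5 (S1P3 pool: GNA16) were loaded overnight at RT with 5 μM coelenterazine h in 0.1% fatty-acid-free BSA buffer. Cells were injected onto compound, luminescence recorded 90 s and integrated, normalised to digitonin or 20 μM ATP; sigmoidal fit.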

[2] = molecular target: T2, human EDG1 (S1PR1) receptor (Homo sapiens, UniProt P21453); experiment: Aequorin assay, agonist potency, CHO-A21-Edg1#17 cells; settings: agonist mode, aequorin luminescence; read-out: S1P1 EC50
T2 construct: expressed in transfected cells; host or cells: CHO-A21-Edg1#17 (CHO clone co-expressing mitochondrial aequorin and chimaeric Gaqi5)
T2 sequence (P21453 whole entry): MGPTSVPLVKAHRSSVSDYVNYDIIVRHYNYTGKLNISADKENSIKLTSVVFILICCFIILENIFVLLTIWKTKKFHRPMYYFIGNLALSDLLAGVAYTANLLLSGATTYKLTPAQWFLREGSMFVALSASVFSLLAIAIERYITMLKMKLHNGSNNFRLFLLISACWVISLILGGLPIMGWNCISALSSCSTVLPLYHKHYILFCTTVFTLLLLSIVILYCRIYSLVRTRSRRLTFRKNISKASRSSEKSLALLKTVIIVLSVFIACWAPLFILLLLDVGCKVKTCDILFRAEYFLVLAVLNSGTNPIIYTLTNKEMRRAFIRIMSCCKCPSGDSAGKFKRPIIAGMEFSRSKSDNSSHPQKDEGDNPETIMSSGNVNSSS
Outline: as §1

[3] = molecular target: T3, human EDG3 (S1PR3) receptor (Homo sapiens, UniProt Q99500); experiment: Aequorin assay, agonist potency, CHO-A2-S1P3 Mix cells; settings: agonist mode, aequorin luminescence
T3 construct: expressed in transfected cells; host or cells: CHO-A2-S1P3 Mix (CHO cell pool co-expressing mitochondrial aequorin and GNA16)
T3 sequence (Q99500 whole entry): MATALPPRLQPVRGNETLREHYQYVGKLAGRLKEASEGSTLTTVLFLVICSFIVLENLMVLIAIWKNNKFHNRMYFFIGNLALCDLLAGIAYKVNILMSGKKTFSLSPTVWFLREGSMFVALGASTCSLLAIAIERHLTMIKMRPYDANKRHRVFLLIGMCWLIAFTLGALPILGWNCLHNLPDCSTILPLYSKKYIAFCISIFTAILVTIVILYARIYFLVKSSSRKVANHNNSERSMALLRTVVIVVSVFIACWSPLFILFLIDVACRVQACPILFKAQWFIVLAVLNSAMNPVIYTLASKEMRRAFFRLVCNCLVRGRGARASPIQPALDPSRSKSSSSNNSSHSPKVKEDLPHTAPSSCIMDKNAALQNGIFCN
Procedure: Agonistic activity was measured as described below.
Cell clone CHO-A21-Edg1#17 carries the transgenes human EDG1 (S1PR1) receptor (Accession number NP_001391.2), mitochondrially targeted Aequorin (active part corresponds to accession number 1SL8_A) and chimaeric Gaqi5=Gaq modified with the 5 C-terminal amino-acids replaced with those of the Gai protein (DCGLF). CHO-A2-S1P3 Mix is a cell pool ectopically expressing human EDG3 (S1PR3) receptor (Accession number NP_005217.2) mitochondrially targeted Aequorin (active part has a sequence similar to accession number AY601106.1) and GNA16 (Accession number NP_002059.3). Cell clone CHO-A21-EDG8#12 carries the transgenes human EDG8 (S1PR5) receptor (Acession number NP_110387.1), mitochondrially expressed Aequorin (active part corresponds to accession number 1SL8_A) and chimaeric Gaqi5 (Gaq modified to present the 5 last amino-acids of the Gai protein “DCGLF”; see above). Cells are grown to mid-log phase in culture medium (HAM's F12, 10% FBS, 100 IU/mL penicillin, 100 μg/mL streptomycin, 250 μg/mL Zeocin, 400 μg/mL G418). 18 hours prior to frozen cells preparation, the medium is changed to remove the antibiotics.
18 hours prior to the test, vials of frozen cells are quickly thawed in a 37° C. water bath, cells are recovered by centrifugation and resuspended in assay buffer (DMEM/HAM's F12 with HEPES, without phenol red+0.1% fatty acid-free BSA). Cells are gently agitated in suspension overnight at RT in presence of 5 μM of Coelenterazine h (Molecular Probes). On the day of the test, cells are diluted to their final working concentrations in assay buffer and agitated in suspension for 1 h at RT. Cells are then placed in the luminescence reader (Hamamatsu Functional Drug Screening System 6000, FDSS6000). During cells incubation, compounds are prepared in 100% DMSO, and subsequently diluted in assay buffer. Compounds are then dispensed in the assay plate (black, clear-bottom, 384-well plate). After binding of agonists to the human S1P receptor the intracellular calcium concentration increases and binding of calcium to the Aequorin/Coelenterazine complex leads to an oxidation reaction of coelenterazine, which results in the production of Aequorin, coelenteramide, CO2 and light (Dmax 469 nm). The luminescent response is dependent on the agonist concentration. For agonist testing, 30 μL of cell suspension are injected on 30 μL of test compound or reference agonist in the assay plate. The resulting emission of light is recorded for 90 seconds using the FDSS6000. Dose response curves with the reference compounds are performed before testing the compounds. S1P is the reference agonist and JTE-013 the reference antagonist for S1P2.
Luminescence data are integrated over the reading interval for agonist and antagonist modes. To standardize the emission of recorded light (determination of the “100% signal”) across plates and across different experiments, some of the wells contain 100 μM digitonin or a saturating concentration of ATP (20 μM). Plates also contain the reference agonist at a concentration equivalent to the EC80 obtained during the test validation and the EC100. Dose-response data from test compounds were analyzed with XLfit (IDBS) software using nonlinear regression applied to a sigmoidal dose-response model and the following equation: […]

S1P4 = molecular target: T4, S1P4 (Homo sapiens, UniProt O95977); experiment: Aequorin assay, agonist potency, S1P4; settings: agonist mode, aequorin luminescence
T4 sequence (O95977 1-384): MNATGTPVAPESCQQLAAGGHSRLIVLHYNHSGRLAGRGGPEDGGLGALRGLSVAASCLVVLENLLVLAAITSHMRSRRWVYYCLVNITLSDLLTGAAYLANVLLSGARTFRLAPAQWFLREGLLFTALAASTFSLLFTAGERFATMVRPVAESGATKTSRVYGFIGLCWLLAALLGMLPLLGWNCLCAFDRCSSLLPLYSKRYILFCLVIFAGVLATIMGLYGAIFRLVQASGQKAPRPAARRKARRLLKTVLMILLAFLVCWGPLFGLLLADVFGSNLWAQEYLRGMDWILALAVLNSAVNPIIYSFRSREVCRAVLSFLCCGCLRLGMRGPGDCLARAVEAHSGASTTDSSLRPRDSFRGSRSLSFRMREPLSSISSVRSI
Outline: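 Aequorin luminescence read over 90 s after adding coelenterazine h–loaded cells (5 μM, overnight, RT) to test compound in phenol red-free DMEM/F12 buffer containing 0.1% fatty acid-free BSA. Responses integrated, scaled to the 100% signal from 100 μM digitonin or 20 μM ATP, and fitted to a sigmoidal dose-response model.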

Question: What does the source list for `O=C(O)C1(CN2CC3(Cc4ccc(-c5ccc(OCc6cccc(F)c6)cc5)cc4C3)C2)CC1` [Example 50, 1-((5′-(4-((3-fluorobenzyl)oxy)phenyl)-1′,3′-dihydrospiro[azetidine-3,2′-inden]-1-yl)methyl)cyclopropanecarboxylic acid]?
Answer: pEC50 [1]: ≥ 8.00; pEC50 [2]: < 6.00; pEC50 [3]: < 6.00; pEC50 (S1P4): > 6.00

Question: How did the pEC50 [1] turn out when `O=C(O)C1(CN2CC3(Cc4ccc(-c5ccc(OCC6CCCCC6)cc5)cc4C3)C2)CC1` [Example 51, 1-((5′-(4-(cyclohexylmethoxy)phenyl)-1′,3′-dihydrospiro[azetidine-3,2′-inden]-1-yl)methyl)cyclopropanecarboxylic acid] was run?
Answer: 7.00 to 8.00

Question: What about the pEC50 [2] of the same compound?
Answer: < 6.00

Question: And the pEC50 [3]?
Answer: < 6.00

Question: And the pEC50 (S1P4)?
Answer: < 6.00

Question: How did the pEC50 [1] turn out when `O=C(O)C1(CN2CC3(Cc4ccc(-c5ccc(OCc6cccc(Cl)c6)cc5)cc4C3)C2)CC1` [Example 52, 1-((5′-(4-((3-chlorobenzyl)oxy)phenyl)-1′,3′-dihydrospiro[azetidine-3,2′-inden]-1-yl)methyl)cyclopropanecarboxylic acid] was run?
Answer: 7.00 to 8.00

Question: What about the pEC50 [2] of the same compound?
Answer: < 6.00

Question: And the pEC50 [3]?
Answer: < 6.00

Question: What about the pEC50 (S1P4) of the same compound?
Answer: > 6.00

Question: What does the source list for `O=C(O)C1(CN2CC3(Cc4ccc(OCCc5c(Cl)cccc5Cl)cc4C3)C2)CC1` [Example 59, 1-((5′-(2,6-dichlorophenethoxy)-1′,3′-dihydrospiro[azetidine-3,2′-inden]-1-yl)methyl)cyclopropanecarboxylic acid]?
Answer: pEC50 [1]: ≥ 8.00; pEC50 [2]: < 6.00; pEC50 [3]: < 6.00; pEC50 (S1P4): > 6.00

Question: What does the source list for `O=C(O)CN1CC2(Cc3ccc(OCCc4ccccc4C(F)(F)F)cc3C2)C1` [Example 62]?
Answer: pEC50 [1]: ≥ 8.00; pEC50 [2]: < 6.00; pEC50 [3]: < 6.00; pEC50 (S1P4): > 6.00

Question: How did the pEC50 [1] turn out when `O=C(O)CN1CC2(Cc3ccc(OCCc4c(Cl)cccc4Cl)cc3C2)C1` [Example 63, 2-(5′-(2,6-dichlorophenethoxy)-1′,3′-dihydrospiro[azetidine-3,2′-inden]-1-yl)acetic acid] was run?
Answer: ≥ 8.00

Question: And the pEC50 [2]?
Answer: < 6.00

Question: And the pEC50 [3]?
Answer: < 6.00

Question: What about the pEC50 (S1P4) of the same compound?
Answer: > 6.00

Question: `O=C(O)C1(CN2CC3(Cc4ccc(-c5ccc(OCc6ccc(Cl)cc6)cc5)cc4C3)C2)CC1` [Example 108, 1-((5′-(4-((4-chlorobenzyl)oxy)phenyl)-1′,3′-dihydrospiro[azetidine-3,2′-inden]-1-yl)methyl)cyclopropanecarboxylic acid] was tested. Which pEC50 [1] did it give?
Answer: 7.00 to 8.00

Question: And the pEC50 [2]?
Answer: < 6.00

Question: And the pEC50 [3]?
Answer: < 6.00

Question: What about the pEC50 (S1P4) of the same compound?
Answer: < 6.00

Question: How did the pEC50 [1] turn out when `O=C(O)CN1CC2(Cc3ccc(OCc4c(Cl)cccc4Cl)cc3C2)C1` [Example 109, 2-(5′-((2,6-dichlorobenzyl)oxy)-1′,3′-dihydrospiro[azetidine-3,2′-inden]-1-yl)acetic acid] was run?
Answer: ≥ 8.00

Question: What about the pEC50 [2] of the same compound?
Answer: < 6.00

Question: What about the pEC50 [3] of the same compound?
Answer: < 6.00

Question: And the pEC50 (S1P4)?
Answer: > 6.00

Question: With `O=C(O)CN1CC2(Cc3ccc(OCc4c(F)cccc4C4CC4)cc3C2)C1` [Example 110, 2-(5′-((2-cyclopropyl-6-fluorobenzyl)oxy)-1′,3′-dihydrospiro[azetidine-3,2′-inden]-1-yl)acetic acid] as the compound, how does the pEC50 [1] read?
Answer: ≥ 8.00

Question: What about the pEC50 [2] of the same compound?
Answer: < 6.00

Question: And the pEC50 [3]?
Answer: < 6.00

Question: And the pEC50 (S1P4)?
Answer: > 6.00

Question: `O=C(O)CN1CC2(Cc3ccc(OCc4ccccc4C4CC4)cc3C2)C1` [Example 111, 2-(5′-((2-cyclopropylbenzyl)oxy)-1′,3′-dihydrospiro[azetidine-3,2′-inden]-1-yl)acetic acid] was tested. Which pEC50 [1] did it give?
Answer: ≥ 8.00

Question: And the pEC50 [2]?
Answer: < 6.00

Question: What about the pEC50 [3] of the same compound?
Answer: < 6.00

Question: What about the pEC50 (S1P4) of the same compound?
Answer: > 6.00

Question: `CCc1cccc(F)c1COc1ccc2c(c1)CC1(CCN(CC(=O)O)CC1)C2` [Example 159, 2-(5-((2-ethyl-6-fluorobenzyl)oxy)-1,3-dihydrospiro[indene-2,4′-piperidin]-1′-yl)acetic acid hydrochloride] was tested. Which pEC50 [1] did it give?
Answer: ≥ 8.00

Question: What about the pEC50 [2] of the same compound?
Answer: < 6.00

Question: What about the pEC50 [3] of the same compound?
Answer: < 6.00

Question: What about the pEC50 (S1P4) of the same compound?
Answer: > 6.00

Question: `O=C(O)CN1CCC2(CC1)Cc1ccc(OCc3c(Cl)cccc3Cl)cc1C2` [Example 160, 2-(5-((2,6-dichlorobenzyl)oxy)-1,3-dihydrospiro[indene-2,4′-piperidin]-1′-yl)acetic acid] was tested. Which pEC50 [1] did it give?
Answer: ≥ 8.00

Question: And the pEC50 [2]?
Answer: < 6.00

Question: What about the pEC50 [3] of the same compound?
Answer: < 6.00

Question: What about the pEC50 (S1P4) of the same compound?
Answer: > 6.00

Question: With `CCc1cccc(Cl)c1COc1ccc2c(c1)CC1(CCN(CC(=O)O)CC1)C2` [Example 161, 2-(5-((2-chloro-6-ethylbenzyl)oxy)-1,3-dihydrospiro[indene-2,4′-piperidin]-1′-yl)acetic acid hydrochloride] as the compound, how does the pEC50 [1] read?
Answer: ≥ 8.00

Question: What about the pEC50 [2] of the same compound?
Answer: < 6.00

Question: And the pEC50 [3]?
Answer: < 6.00

Question: And the pEC50 (S1P4)?
Answer: > 6.00
